Structures can show the parent of a compound that is named as a salt.
Legend:
[1] = target: dopamine transporter site (Cavia porcellus, UniProt H0WCX4); test: Dopamine reuptake inhibition assay ([3H]WIN 35428 binding, striatal membranes); design: species or system Guinea pig; settings: read-out: DA Uptake, mean % inhibition; for inhibition at 10 µM: @ 10.0 µM (bottom number); for inhibition at 0.1 µM: @ 100 nM (top number)
Method: (§1) Monoamine transporter binding assays (reuptake inhibition assays) were performed by NovaScreen using standard radioligand binding assays. The transporter binding assays are described briefly below:
(§2) Reactions were terminated by rapid vacuum filtration onto glass fiber filters.

[2] = target: norepinephrine transporter site (Rattus norvegicus, UniProt Q63380); test: Norepinephrine reuptake inhibition assay ([3H]nisoxetine binding, forebrain membranes); settings: read-out: NE Uptake, mean % inhibition
norepinephrine transporter site, sequence (Q63380 1-617): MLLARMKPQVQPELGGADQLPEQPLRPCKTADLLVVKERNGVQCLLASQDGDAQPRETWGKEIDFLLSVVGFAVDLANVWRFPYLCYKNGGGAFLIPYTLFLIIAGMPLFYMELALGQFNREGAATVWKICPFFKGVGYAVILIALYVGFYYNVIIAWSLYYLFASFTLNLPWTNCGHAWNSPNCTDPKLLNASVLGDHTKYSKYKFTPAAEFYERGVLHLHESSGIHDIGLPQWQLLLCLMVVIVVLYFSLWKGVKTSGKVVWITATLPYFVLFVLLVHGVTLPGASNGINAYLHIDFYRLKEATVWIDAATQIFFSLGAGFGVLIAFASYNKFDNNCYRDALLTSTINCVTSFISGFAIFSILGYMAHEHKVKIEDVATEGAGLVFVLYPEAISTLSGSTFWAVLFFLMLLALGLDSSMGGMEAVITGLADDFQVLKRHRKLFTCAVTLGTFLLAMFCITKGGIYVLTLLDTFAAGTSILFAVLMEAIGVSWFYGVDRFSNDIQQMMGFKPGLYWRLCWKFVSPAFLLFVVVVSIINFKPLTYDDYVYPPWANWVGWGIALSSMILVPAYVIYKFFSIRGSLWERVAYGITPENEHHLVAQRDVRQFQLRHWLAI
Method: as §1, §2

[3] = system: NMDA receptor; test: NMDA assay: fura-2 measurement of cytosolic calcium in cultured rat cerebellar granule cells; format: cell-based
Method: All culture media, antibiotics, and enzymes, with the exception of fetal calf serum (Hyclone Laboratories, Logan, UT), were purchased from Sigma Chemical Co., St. Louis, MO. Fura-2/AM was obtained from Molecular Probes, Eugene, OR, and was prepared freshly in dimethylsulfoxide (DMSO) before use. Ionomycin (Calbiochem) was stored as a stock solution in DMSO. Nifedipine (Sigma) and nimodipine (RBI) were dissolved in absolute ethanol. […] All other agents were dissolved in phosphate-buffered saline (PBS), and adjusted to pH 7.4
Briefly, primary cultures of cerebellar granule neurons were obtained from 8-day-old rats and plated onto squares of Aclar plastic coated with poly-L-lyaine. The plastic squares were placed in 12-well culture plates, and ~7.5 x 10^5 cells were added to each well. […] No changes of culture medium were made until the cells were used for fluorescence recording 6-8 days after plating.
The cells were then rinsed with the same buffer, lacking fura-2/AM, and maintained at room temperature until used for measurement of fluorescence, the Aclar squares were transferred into quartz cuvettes containing 2 ml of the HEPES buffer. […] Fluorescence was measured using excitation and emission wavelengths of 340 and 510 nm, respectively.

[4] = target: NMDA receptor; test: [3H]MK-801 binding assay, synaptic plasma membranes from rat cortex; settings: read-out: [^3H]MK-801 data IC50
Method: Synaptic plasma membranes (SPMs) from rat cortex were prepared as follows. […] The cortices from 25 rats were thawed and pooled. […] The extensive washing procedure utilized in this assay was designed to minimize the concentrations of glutamate and glycine (co-agonists at the NMDA receptor-ionophore complex) present in the membrane preparation.
On the day of assay, aliquots of SPM were thawed and resuspended in 75 vols of 5 mM K-EDTA, pH 7.0.
The SPM pellet was resuspended in assay buffer (30 mM EPPS, 1 mM K-EDTA, pH 7.0) by polytron. […] Binding was started by the addition of the tissue homogenate. The assay was terminated by the addition of 4 ml ice-cold buffer, followed by filtration over glass-fiber filters (Schleicher & Schuell No. 30) on a Millipore 12-well filtration manifold. […] Radioactivity on the filters was measured using Fisherbrand Scinti-Safe scintillation cocktail. Samples were shaken for 45-60 min on a shaker platform to solubilize the radioactivity. Counting for ^3H was performed in a Beckman 6000IC LS Scintillation Counter for 4 min per sample.

dopamine transporter site, sequence (H0WCX4 1-619): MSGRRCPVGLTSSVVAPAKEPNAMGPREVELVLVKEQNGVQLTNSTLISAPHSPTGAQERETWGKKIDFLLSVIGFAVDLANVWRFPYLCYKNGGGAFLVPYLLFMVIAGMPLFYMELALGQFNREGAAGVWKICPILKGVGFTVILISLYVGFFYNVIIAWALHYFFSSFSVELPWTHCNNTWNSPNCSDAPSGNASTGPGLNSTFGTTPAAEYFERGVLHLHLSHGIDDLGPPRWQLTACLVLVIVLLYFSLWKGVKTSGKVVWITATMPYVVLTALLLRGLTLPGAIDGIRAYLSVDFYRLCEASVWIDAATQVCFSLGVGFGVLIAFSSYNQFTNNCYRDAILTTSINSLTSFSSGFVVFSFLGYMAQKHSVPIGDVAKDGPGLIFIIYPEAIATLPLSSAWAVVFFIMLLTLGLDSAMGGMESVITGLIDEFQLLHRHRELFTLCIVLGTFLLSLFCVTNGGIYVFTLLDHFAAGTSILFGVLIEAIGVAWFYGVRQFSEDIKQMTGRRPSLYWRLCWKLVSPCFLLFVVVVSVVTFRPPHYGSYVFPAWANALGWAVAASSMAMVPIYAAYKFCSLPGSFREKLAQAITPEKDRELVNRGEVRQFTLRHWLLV

| SMILES | inhibition at 10 µM [1] | inhibition at 0.1 µM [2] | inhibition at 10 µM [2] | inhibition at 0.1 µM [1] | IC50 ([3]; read-out: fura2 data IC50, fura-2 [Ca2+]i) | IC50 [4] | IC50 ([3]; fura-2 [Ca2+]i, read-out: fura2 data IC50) |
| --- | --- | --- | --- | --- | --- | --- | --- |
| CNCCC(Oc1ccc(C(F)(F)F)cc1)c1ccccc1 (stereo not drawn) [Fluoxetine] | 78% | – | – | – | – | – | – |
| Fc1ccc([C@@H]2CCNC[C@H]2COc2ccc3c(c2)OCO3)cc1 [Paroxetine, reference compound] | 97% | < 20% | 50% | < 20% | – | – | – |
| NCCC(Oc1cccc(F)c1)c1cccc(F)c1 (stereo not drawn) [Compound 119, 3-(3-Fluorophenoxy)-3-(3-fluorophenyl)-1-propylamine] | 58.3% | 8.9% | 19.4% | 1.9% | 115 nM | 87 nM | – |
| NCCC1c2ccccc2CCc2ccccc21 [Compound 156, 5-(2-Aminoethyl)-5H-10, 11-dihydrodibenzo [a,d] cycloheptene hydrochloride] | – | – | – | – | – | – | 69 nM |
